In test [1] the test system is Guinea-pigs (Dunkin-Hartley-Pirbright, male). Kind of test: Cardiotonic effect: LV-dP/dtmax and heart rate in anaesthetised guinea-pigs. Type of test: in vivo, guinea-pig. The conditions noted are these: after a dose of 3 mg/kg i.v., averages from 2 to 3 tests; for change in vivo at 3 mg/kg: Cavia porcellus, iv, read-out: Effects on LV-dP/dtmax % increase. The method, then: (§1) Cardiotonic effect with antiadrenergic activity
(§2) Guinea-pigs (Dunkin-Hartley-Pirbright, male, 450-600 g) were anaesthetised with hexobarbital-sodium (150 mg/kg i.p.). After the animals had become unconscious, a tracheal cannula was inserted and the animals were pitched (van Meel, J. Pharmacol. Methods 31 (1): 1-11 (1985)). The animals were then immediately artificially respirated using a breathing pump. The left ventricular pressure (LVP) was measured with a Millar PR-249 catheter-tip manometer inserted into the left ventricle through the left carotid artery. This pressure signal was differentiated electronically (LV-dP/dtmax) and used as a parameter for inotropia. The arterial blood pressure was recorded by a cannula in the right carotid artery using a Bell & Howell pressure recorder. The heart rate was also measured. The substances were administered through a cannula in the jugular vein.
(§3) The test substances were administered to three animals cumulatively in four doses (0.1 to 3 mg/kg) and the effects on blood pressure, heart rate and LV-dP/dtmax were measured. Three minutes after the last dose of the test substance, isoprenalin was administered intravenously in increasing doses. In this way, a cumulative dose-activity correlation was obtained for isoprenalin in the presence of the test substance. The parameters measured were the increase in heart rate and the LV-dP/dtmax. These dose-activity curves were compared with standard curves for isoprenalin without the test substances. The shift to the right of the dose-activity curves for isoprenalin brought about by the test substances were determined graphically and corresponding pA2 values for the test substances were calculated. (see Tenakin in "Pharmacologic Analysis of Drug Receptor Interaction", Rawen Press 1987, pages 211-212).
(§4) The Table which follows contains the averages from 2 to 3 tests: […]

For test [2], the target named is T1, β2 adreno receptor (rat lungs) (Rattus norvegicus, UniProt P10608).
T1 construct: rat lungs (β2); from tissue; host or cells: rat lung membrane preparation
T1 sequence (P10608 whole entry): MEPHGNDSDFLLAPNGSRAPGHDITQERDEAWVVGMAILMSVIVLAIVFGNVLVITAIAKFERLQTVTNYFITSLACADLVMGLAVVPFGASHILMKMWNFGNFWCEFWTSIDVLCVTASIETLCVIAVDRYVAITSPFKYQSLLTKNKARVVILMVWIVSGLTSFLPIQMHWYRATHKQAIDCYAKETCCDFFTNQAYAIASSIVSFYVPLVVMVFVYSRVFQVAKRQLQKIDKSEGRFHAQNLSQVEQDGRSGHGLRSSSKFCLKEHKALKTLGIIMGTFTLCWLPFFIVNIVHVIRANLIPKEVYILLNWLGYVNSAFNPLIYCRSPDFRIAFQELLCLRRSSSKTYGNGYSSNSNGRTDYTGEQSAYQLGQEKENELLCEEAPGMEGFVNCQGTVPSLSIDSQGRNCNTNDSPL
Kind of test: Affinity for β-adreno receptors: inhibition of 3H-CGP 12177 binding, receptor preparations from rat lungs (β2). The note with it: 200 pM 3H-CGP 12177. The method, then:
(§5) 1. Affinity for β-adreno recectors
(§6) The inhibitory effect on the binding of ^3 H-CGP 12177 was tested on receptor preparations from rat hearts (β1) and rat lungs (β2). The binding assay was carried out with some modifications according to the method of Dammgen et al. (Drug. Res. 35: 383-390 (1985)). The incubation mixture contained aliquots of the membrane preparation in Tris buffer, increasing concentrations of the potential antagonist as well as 200 pM ^3 H-CGP 12177. The bound and free radioligands were separated after the incubation period by rapid filtration through glass fibre filters. The filter-bound radioactivity was determined in a β counter with a counting yield of about 52%. The non-specific binding was determined in the presence of 10^-5 M propranolol.

Test [3] is described as follows: Antiadrenergic activity: shift of isoprenalin dose-activity curves in guinea-pigs (pA2). Type of test: in vivo, guinea-pig. The note with it: averages from 2 to 3 tests; for pA2 heart rate: against heart rate-increasing activity of isoprenalin; for pA2 inotropia: against inotropic activity of isoprenalin (LV-dP/dtmax). As to the method: as §1, §2, §3, §4
Test [4] addresses T2, β1 adreno receptor (rat hearts) (Rattus norvegicus, UniProt P18090).
T2 construct: receptor preparations from rat hearts (β1); from tissue; host or cells: rat heart membrane preparation
Put plainly: Affinity for β-adreno receptors: inhibition of 3H-CGP 12177 binding, receptor preparations from rat hearts (β1). The conditions noted are these: 200 pM 3H-CGP 12177. The method, then:
as §5, §6

The structures appear in SMILES notation.

A word on the IC50: it is the concentration that inhibits the measured activity by half. A lower IC50 goes with greater potency.

T2 sequence (P18090 whole entry): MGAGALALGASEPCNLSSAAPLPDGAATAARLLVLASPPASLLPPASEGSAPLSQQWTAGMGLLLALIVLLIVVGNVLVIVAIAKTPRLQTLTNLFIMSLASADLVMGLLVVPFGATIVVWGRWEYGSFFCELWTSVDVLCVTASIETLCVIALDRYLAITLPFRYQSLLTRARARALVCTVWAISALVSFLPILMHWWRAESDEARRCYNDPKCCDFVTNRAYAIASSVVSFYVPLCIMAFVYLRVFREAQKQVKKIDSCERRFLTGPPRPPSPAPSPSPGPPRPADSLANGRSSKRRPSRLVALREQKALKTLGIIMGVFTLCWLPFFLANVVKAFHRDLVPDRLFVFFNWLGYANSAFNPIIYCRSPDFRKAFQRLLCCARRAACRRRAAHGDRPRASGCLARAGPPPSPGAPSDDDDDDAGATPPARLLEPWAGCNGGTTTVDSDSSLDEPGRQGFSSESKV

Take `CC(C)COCCc1ccc(OCC(O)CNCCCn2cnc3cc(C4=NNC(=O)CC4)ccc32)cc1` (stereo not drawn) [Substance H]: in test [1], the change in vivo at 3 mg/kg is 10% and the “Effect on heart rate in beats per minute” value is listed as -90 beats per minute. Besides, the concentration for half-maximal inhibition (IC50) in test [2] was determined as 19 nM. In test [3], the pA2 heart rate is recorded as > 9.0 and the pA2 inotropia worked out at 8.28. Also, in test [4], the half-maximal inhibitory concentration (IC50) came to 10 nM.
In the case of `Cc1cc(C2=NNC(=O)CC2)ccc1OCCNCC(O)COc1ccc(COCCOC(C)C)cc1` (stereo not drawn) [Substance N, 6-[4-[2-[3-(4-(2-isopropoxyethoxy-methyl)phenoxy)-2-hydroxy-propylamino]ethoxy]-3-methyl-phenyl]-4,5-dihydro-3(2H)-pyridazinone], in test [1], the change in vivo at 3 mg/kg is 34% and the “Effect on heart rate in beats per minute” value was -94 beats per minute. Moreover, the IC50 in test [2] was 520 nM. In addition, in test [3], the pA2 heart rate amounted to 8.34 and the pA2 inotropia stood at 7.34. For the same compound, the half-inhibitory concentration (IC50) in test [4] came out at 2.6 nM.
As to `CC(C)OCCOCc1ccc(OCC(O)CNCCOc2ccc(C3=NNC(=O)CC3)cc2)cc1` (stereo not drawn) [Substance F, 6-[4-[2-[3-(4-((2-isopropoxyethoxy)methyl)phenoxy)-2-hydroxy-propylamino]ethoxy]phenyl]-4,5-dihydro-3(2H)-pyridazinone], in test [1], the change in vivo at 3 mg/kg was determined as 37% and the “Effect on heart rate in beats per minute” value was -94 beats per minute. In test [2], this compound showed a concentration for half-maximal inhibition (IC50) of 7200 nM. Further, in test [3], the pA2 heart rate was 6.96 and the pA2 inotropia stood at 7.14. The 50% inhibitory concentration (IC50) in test [4] is 24 nM.

The record behind these values is patent US5135932A, “2-hydroxypropylamino-alkyl-benzimidazoly-5-yl derivatives and their use in the treatment of heart disease” (Dr. Karl Thomae GmbH, priority 1989, dated 1992).
